From paper PMC5708526, “Targeting secondary protein complexes in drug discovery: studying the druggability and chemical biology of the HSP70/BAG1 complex” (Chemical Communications (Cambridge, England), 2017)
Entries after “also recorded” stand apart in the source; their conditions may differ.

Tests used:
HSP72/BAG1 complex = target: T1, HSP72/BAG1 complex (Homo sapiens, UniProt P0DMV8); assay: FP probe KD determination with BAG1; assay type: binding
T1 construct: purchased Enzo Life Sciences (BAG-1M only)
T1 sequence (P0DMV8 whole entry, one chain of several): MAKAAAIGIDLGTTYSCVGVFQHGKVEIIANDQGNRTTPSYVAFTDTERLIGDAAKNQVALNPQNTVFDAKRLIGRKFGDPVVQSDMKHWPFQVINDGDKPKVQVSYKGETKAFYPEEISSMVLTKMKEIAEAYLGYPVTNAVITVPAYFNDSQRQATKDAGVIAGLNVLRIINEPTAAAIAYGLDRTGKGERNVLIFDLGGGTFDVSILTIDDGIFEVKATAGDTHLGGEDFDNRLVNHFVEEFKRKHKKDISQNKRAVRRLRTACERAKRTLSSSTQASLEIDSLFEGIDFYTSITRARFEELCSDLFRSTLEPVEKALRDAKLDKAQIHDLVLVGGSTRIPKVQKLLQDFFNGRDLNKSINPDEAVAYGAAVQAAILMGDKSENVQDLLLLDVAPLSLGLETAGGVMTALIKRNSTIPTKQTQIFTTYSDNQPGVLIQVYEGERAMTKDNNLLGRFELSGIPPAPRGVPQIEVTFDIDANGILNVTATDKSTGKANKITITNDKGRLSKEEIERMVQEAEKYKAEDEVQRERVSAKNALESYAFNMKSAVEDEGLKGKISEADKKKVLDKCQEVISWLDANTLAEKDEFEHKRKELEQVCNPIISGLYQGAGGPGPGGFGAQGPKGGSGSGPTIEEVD
Description: To assess what effect the secondary HSP72/BAG1 complex had on the apparent affinity of the non-nucleotide bisaryl-ATTO-488 FP-probe 11, we carried out a similar BAG1 study. […] To confirm that the binding of BAG1 to HSP72 was not mutually exclusive, we screened the nucleotides ADP and ATP in a competition assay with bisaryl-ATTO-488 11 and HSP72 at a 50% bound fraction, with and without a saturating concentration of BAG1 (700 nM) (Fig. S7, ESI ^†). […]
mM TRIS base pH 7.4, 100 mM NaCl, 1 mM DTT, 1% (v/v) glycerol) or BAG1 replacement buffer (5 μL, 20 mM TRIS base pH 7.4, 100 mM NaCl, 1 mM DTT, 1% (v/v) glycerol) was added to the corresponding wells of the assay plate. Fluorescence polarisation values for probe and HSP72 ± BAG1 were plotted using GraphPad prism 6.
KD determination with BAG1: To each well, 5 μL containing probe molecule (20 nM in assay buffer) and BAG1 protein (1.4 μM in assay buffer) and increasing concentrations of HSP70 protein (5 μL, two-fold dilution series) were added. Fluorescence polarisation values for tracer control wells (10 nM probe in assay buffer only) were subtracted from each data point prior to data analysis. KD determination was performed using non-linear regression analysis (GraphPad Prism 6, one site–specific binding […]

BAG1 = target: T2, BAG1 (Homo sapiens, UniProt Q99933); assay: FP of probes with BAG1 in the absence of HSP72; assay type: binding; details: 10 nM probe, 1 µM BAG1
T2 construct: purchased Enzo Life Sciences
T2 sequence (Q99933 1-274 isoform Q99933-3): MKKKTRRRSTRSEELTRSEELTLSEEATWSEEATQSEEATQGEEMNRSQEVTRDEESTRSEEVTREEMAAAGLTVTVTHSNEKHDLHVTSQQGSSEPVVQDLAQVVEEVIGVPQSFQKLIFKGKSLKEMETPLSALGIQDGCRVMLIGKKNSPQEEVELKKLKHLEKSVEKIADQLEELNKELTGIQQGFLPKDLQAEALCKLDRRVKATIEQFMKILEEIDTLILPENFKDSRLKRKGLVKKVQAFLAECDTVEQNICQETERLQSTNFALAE
Description: To assess what effect the secondary HSP72/BAG1 complex had on the apparent affinity of the non-nucleotide bisaryl-ATTO-488 FP-probe 11, we carried out a similar BAG1 study. […] To confirm that the binding of BAG1 to HSP72 was not mutually exclusive, we screened the nucleotides ADP and ATP in a competition assay with bisaryl-ATTO-488 11 and HSP72 at a 50% bound fraction, with and without a saturating concentration of BAG1 (700 nM) (Fig. S7, ESI ^†).
Fig. S4. Competitive displacement curve for bisarryl-ATTO-448 and HSP72 with compound 2. IC50 determination was performed using non-linear least squares curve fitting (GraphPad Prism 6, log(inhibitor) vs. response—variable slope (four parameters)), all data points were tested in triplicate and are represented as the arithmetic mean ± SEM. pKD=-log KD (M). pKD values are quoted as the geometric mean±SEM of n independent repeats.
Fig. S5. Bisaryl-ATTO-488 and ATP-ATTO-488 binding to truncated HSP72 and HSC70. Representative binding isotherms for bisaryl-ATTO-488 (blue) and ATP-ATTO-488 (red) binding to TR-HSP72 (aa 3-382) (•) and TR-HSC70 (aa 4-381) (x). KD determination was performed using non-linear regression analysis (one site–specific binding model), all data points were tested in triplicate and are represented as the arithmetic mean ± SEM. pKD=-log KD (M). pKD values are quoted as the geometric mean±SEM of n independent repeats.
Fig. S6. […]

## CN(CCCC(=O)NCCCCCCNc1ncnc2c1nc(NCc1ccc3ncccc3c1)n2[C@@H]1O[C@H](COCc2ccc(C(F)(F)F)cc2)[C@@H](O)[C@H]1O)C(=O)c1ccccc1-c1c2ccc(=N)c(S(=O)(=O)O)c-2oc2c(S(=O)(=O)O)c(N)ccc12 [compound 11]
HSP72/BAG1 complex; 700 nM BAG1
  Kd: 141 nM
HSP72/BAG1 complex; saturating BAG1 (700 nM)
  effect of BAG1 on affinity of the probe for HSP72: maintained; also recorded: no significant change
BAG1
  interaction with BAG1 in the absence of HSP72: No interaction
BAG1; listed as bisaryl-ATTO-488
  interaction with BAG1 in the absence of HSP72: does not interact
